Read-outs that look alike come from different tables or passages of the source. No end group written: not given here.
Molecular target: T1, GPR103 E203^ECL2A/Q211^5.35E/E297^6.59A (Homo sapiens, UniProt Q96P65, E203A/E297A/Q211E)
T1 construct: we used human full-length QRFPR-encoding plasmids; expressed in transfected cells; host or cells: HEK293 cells (HEK293A in the flow cytometry section), pCAGGS vector
T1 sequence (Q96P65 1-431 E203A/Q211E/E297A): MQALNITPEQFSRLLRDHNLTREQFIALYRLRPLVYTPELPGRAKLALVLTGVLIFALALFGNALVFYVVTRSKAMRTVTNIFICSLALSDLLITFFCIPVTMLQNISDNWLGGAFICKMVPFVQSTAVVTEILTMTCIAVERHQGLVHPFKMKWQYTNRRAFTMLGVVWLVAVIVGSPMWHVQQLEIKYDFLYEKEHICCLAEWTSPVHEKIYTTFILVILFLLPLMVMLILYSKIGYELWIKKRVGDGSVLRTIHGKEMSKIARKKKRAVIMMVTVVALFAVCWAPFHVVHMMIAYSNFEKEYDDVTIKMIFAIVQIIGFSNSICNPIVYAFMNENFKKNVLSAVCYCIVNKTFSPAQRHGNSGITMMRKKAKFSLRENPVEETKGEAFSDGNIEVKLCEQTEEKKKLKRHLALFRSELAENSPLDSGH
Experiment: TGFα shedding assay; Exp. level >WT (1:1)
Format: cell-based
Experimental: For the TGFα shedding assay and the flow cytometry analysis, we used human full-length QRFPR-encoding plasmids. Specifically, GPR103 was N-terminally modified with an HA signal sequence followed by a FLAG epitope and then a flexible linker ([…]; the FLAG epitope is underlined) and inserted into the pCAGGS vector. Plasmid encoding GPR103 mutants were generated using Quickchange Site-Directed Mutagensis kit (Agilent).
The TGFα shedding assay was performed as described previously with minor modifications. Plasmid transfection was performed in a 6-well plate with a mixture of 500 ng (per well in a 6-well plate) AP-TGFα-encoding plasmid and 200 ng GPR103-encoding plasmid. After 1-day culture, the transfected cells were harvested by trypsinization, pelleted by centrifugation at 190 × g for 5 min, and washed once with 5 mM HEPES (pH 7.4)-containing Hank’s Balanced Salt Solution (HBSS). After centrifugation, the cells were resuspended in 8 mL of the HEPES-containing HBSS. The cell suspension was seeded in a 96-well culture plate (cell plate) at a volume of 90 μL (per well hereafter) and incubated in a 37 °C incubator with 5% CO2 for 30 min. […] After spinning the cell plates at 190 × g for 2 min, 80 μL of conditioned media was transferred to an empty 96-well plate (conditioned media (CM) plate). Then, 80 μL of AP reaction solution (10 mM p-nitrophenylphosphate (p-NPP), 120 mM Tris-HCl (pH 9.5), 40 mM NaCl, and 10 mM MgCl2) was dispensed into the cell plates and the CM plates. Absorbance at 405 nm of the plates was measured using a microplate reader (SpectraMax 340 PC384, Molecular Devices) before and after 1-h incubation at room temperature. Ligand-induced AP-TGFα release was calculated by subtracting spontaneous AP-TGFα release signal from ligand-induced AP-TGFα release signal. The AP-TGFα release signals were fitted to a four-parameter sigmoidal concentration–response curve, using the Prism 10 software (GraphPad Prism). For each replicate experiment, the pEC50 parameter (negative logarithmic values of EC50 values) of the individual GPR103 mutants were normalized to that of the wild-type GPR103 performed in parallel, and resulting ∆pEC50 values were used to denote ligand response activity of the mutants. […]
Exp. le vel: WT (1:5 0)Exp. le vel: WT (1:5 0)Exp. le vel: WT (1:5 0)Exp. le vel: WT (1:2 0)Exp. le vel: WT (1:2 0)Exp. le vel: WT (1:1 0) […]
L1 4N - t e r mA F2 5N - t e r mA I 2 6N - t e r mA Y 2 9N - t e r mA C 9 82 .5 7A T10 22 .6 1A Exp . l eve l: WT (1 :5)Exp . l evel : >WT (1 :1)Exp. le vel: WT (1:2 0)Exp. le vel: WT (1:2 0)Exp. le vel: WT (1:5 0)Exp . l eve l: WT (1 :1) […]
Exp. le vel: WT (1:1 0)Exp. le vel: WT (1:2 0) C 1 1 83 .2 5AExp. le vel: WT (1:5 0)Exp. le vel: WT (1:5 0)Exp. le vel: WT (1:2 0)Exp . l eve l: WT (1 :5) […]
Exp. le vel: WT (1:5 0)Exp. le vel: WT (1:1 0)Exp. le vel: WT (1:5 0) E203ECL2AExp . l evel : >WT (1 :1)Exp. le vel: WT (1:5 0)Exp. le vel: WT (1:5 0) […]
Exp . l eve l: WT (1 :1) F28Exp. le vel: WT (1:5 0) C 2 8 56 .4 7AExp. le vel: WT (1:2 0) WExp. le vel: WT (1:2 0) F28Exp. le vel: WT (1:5 0)Exp . l evel : >WT (1 :1) […]
Exp. le vel: WT (1:5 0)Exp. le vel: WT (1:5 0) C 3 2 77 .4 8AExp . l eve l: WT (1 :5)Exp . l evel : >WT (1 :1)Exp . l evel : >WT (1 :1) […]
Suppl eme nt ary Figure 1 | Mutational analysis of GPR103. […]
mutants. Data are presented as mean values ± SEM, normally n=3-5; dots), each performed in triplicate. b-d Cell-surface expression (b) and QRFP26-in-duced activation of GPR103 (c, d) were analyzed by the flow cytometry and the TGFα shedding assay, respectively. From the concentration–response curves (a), Emax (c) and ΔpEC50 (d) values relative to the wild type were calculated. Colors in the mutant bars indicate an expression level matching to that of titrated wild type. Statistical analyses were performed using the ordinary one-way ANOVA followed by Dunnett tests with the expression-matched […]

Emax (Exp. #1): 103.81 % WT
Emax (Exp. #2): 100.88 % WT
Emax (Exp. #3): 112.76 % WT
Emax (mean, read-out: Emax): 106%
EC50 (n = 3): 0.427 µM
Emax (n = 3, read-out: Emax): 109 ± 2.9%
Substance: TSGPLGNLAEELNGYSRKKGGFSFRF-NH2 [QRFP26]

From paper PMC11187126, “Structure and dynamics of the pyroglutamylated RF-amide peptide QRFP receptor GPR103” (Nature Communications, 2024)
